EP2457916A1, “Compound for the covalent attachment of the chemiluminescent probe N-(4-Aminobutyl)-N-ethylisoluminol (ABEI) to target molecules and uses thereof” (DiaSorin S.p.A., priority 2010, dated 2012)

Test: Stability of compound (1a) dissolved in organic solvents, formation of the hydrolysis product (ABEI-glutaric acid) monitored by HPLC
Format: physicochemical
Procedure: The stability of compound (1a) dissolved in organic solvents (DMSO, acetonitrile) was evaluated at two different storage temperatures, -30°C and +4°C, by monitoring the formation of the hydrolysis product (ABEI-glutaric acid) using a chromatographic HPLC system.
Within the limits of reproducibility of the experimental determination, less than 2% of compound (1a) was hydrolysed to glutaric acid after 270 days at -30°C (Fig. 9), while less than 7% of compound (1a) was hydrolysed to acid at +4°C after 38 days (Fig. 10). This compares to the reported high instability of equivalent NHS esters which have half-lives of hours under physiological pH conditions. At 0°C and at pH 7, the half-life is typically 4-5 h [Lomant, A.J., Fairbanks, G. J. Mol. Biol. 1976, 104, 243-261], at pH 8.6 and 4°C this falls to only 10 min [Cuatrecaseas, P., Parikh, I. Biochemistry 1972, 11, 2291-2299].

- compound (1a) hydrolysed to glutaric acid (solution (DMSO), after 270 days at -30°C (Fig. 9)): less than 2%
- compound (1a) hydrolysed to acid (solution (DMSO), at +4°C after 38 days (Fig. 10)): less than 7%
- stability of solution (in DMSO) (stored at from +4°C to -30°C): highly stable
Substance: N-(4-Aminobutyl)-N-ethylisoluminol anhydroglutarate [compound (1a)]
